Assay [1] has as its system velvetleaf (Abutilon theophrasti). The assay is described as follows: Test C pre/postemergence. Format: in vivo. As to conditions: for pest or weed control at 31 g/ha / pest or weed control at 62 g/ha / pest or weed control at 125 g/ha / pest or weed control at 250 g/ha / pest or weed control at 500 g/ha: Abutilon theophrasti. The procedure, abridged:
(§1)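 Injury scored visually 12–14 days after application on 0–100 scale (100 = complete control), relative to controls. Compounds, formulated with surfactant in non-phytotoxic solvent, applied to soil at planting (pre) or to 1- to 4-leaf plants 2–18 cm tall (post) in greenhouse.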

Assay [2] deals with yellow nutsedge (Cyperus esculentus). The assay can be described thus: Test C pre/postemergence. As to conditions: for pest or weed control at 31 g/ha / pest or weed control at 62 g/ha / pest or weed control at 125 g/ha / pest or weed control at 250 g/ha / pest or weed control at 500 g/ha: Cyperus. It counts as in vivo. The procedure, abridged: as §1
Where [3] appears, read: Postemergence, 62 g ai/ha, scale 0 to 100 (0 no effect, 100 complete control).
Setting [4] is: Postemergence, 125 g ai/ha, scale 0 to 100 (0 no effect, 100 complete control).
Where [5] appears, read: Postemergence, 250 g ai/ha, scale 0 to 100.
Setting [6] is: Postemergence, 500 g ai/ha, scale 0 to 100.
[7] abbreviates: post-emergence, Postemergence, 31 g ai/ha, read-out: Plant response rating (scale of 0 to 100), Velvetleaf.
Where [8] appears, read: post-emergence, Postemergence, 62 g ai/ha, scale 0 to 100 (0 no effect, 100 complete control), read-out: Velvetleaf plant response rating.
[9] abbreviates: post-emergence, Postemergence, 125 g ai/ha, scale 0 to 100 (0 no effect, 100 complete control), read-out: Velvetleaf plant response rating.
Where [10] appears, read: post-emergence, Postemergence, 250 g ai/ha, scale 0 to 100, read-out: Plant response rating, Velvetleaf.
Setting [11] is: post-emergence, Postemergence, 31 g ai/ha, read-out: Plant response rating (scale of 0 to 100), Nutsedge, Yellow.
Where [12] appears, read: post-emergence, Postemergence, 62 g ai/ha, scale 0 to 100 (0 no effect, 100 complete control), read-out: Nutsedge, Yellow plant response rating.
[13] abbreviates: post-emergence, Postemergence, 125 g ai/ha, scale 0 to 100 (0 no effect, 100 complete control), read-out: Nutsedge, Yellow plant response rating.
[14] abbreviates: post-emergence, Postemergence, 250 g ai/ha, scale 0 to 100, read-out: Plant response rating, Nutsedge, Yellow.
Setting [15] is: post-emergence, Postemergence, 500 g ai/ha, scale 0 to 100, read-out: Plant response rating, Velvetleaf.
[16] abbreviates: pre-emergence, Preemergence, 62 g ai/ha, scale 0 to 100, 0 no effect, 100 complete control, read-out: Plant response rating, Velvetleaf.
[17] abbreviates: pre-emergence, Preemergence, 125 g ai/ha, scale 0 to 100, read-out: Plant response rating, Velvetleaf.
[18] abbreviates: pre-emergence, Preemergence, 250 g ai/ha, scale 0 to 100, read-out: Plant response rating, Velvetleaf.
The mark [19] stands for this setting: post-emergence, Postemergence, 500 g ai/ha, scale 0 to 100, read-out: Plant response rating, Nutsedge, Yellow.
Where [20] appears, read: pre-emergence, Preemergence, 62 g ai/ha, scale 0 to 100, 0 no effect, 100 complete control, read-out: Plant response rating, Nutsedge, Yellow.
[21] abbreviates: pre-emergence, Preemergence, 125 g ai/ha, scale 0 to 100, read-out: Plant response rating, Nutsedge, Yellow.
Where [22] appears, read: pre-emergence, Preemergence, 250 g ai/ha, scale 0 to 100, read-out: Plant response rating, Nutsedge, Yellow.
Setting [23] is: Preemergence, 16 g ai/ha, scale 0 to 100, 0 no effect, 100 complete control.
Setting [24] is: Preemergence, 31 g ai/ha, scale 0 to 100, 0 no effect, 100 complete control.
Where [25] appears, read: Preemergence, 62 g ai/ha, scale 0 to 100, 0 no effect, 100 complete control.

Results on 8 compounds are retold here after patent publication US8802597B2, “Herbicidal pyrimidines” (E I du Pont de Nemours and Company, priority 2003, dated 2014).

Where two headings read alike, the source gives them in different places.

As for `CC(=O)NN=Cc1nc(C2CC2)nc(N)c1Br` [Compound 51], the “Velvetleaf plant response rating” value amounted to 0 in assay [1] (setting [3]) and 20 in assay [1] (setting [4]). The figures for the “Plant response rating, Velvetleaf” value in assay [1] (setting [5]) and in assay [1] (setting [6]) were 60 and 65, respectively. Besides, the “Nutsedge, Yellow plant response rating” value in assay [2] (setting [3]) and in assay [2] (setting [4]) was 0 each time. The “Plant response rating, Nutsedge, Yellow” value in assay [2] (setting [5]) and in assay [2] (setting [6]) was 0 each time.
As to `Nc1nc(-c2ccc(Br)cc2)nc(C(=O)O)c1Br` [Compound 136], the “Plant response rating (scale of 0 to 100), Velvetleaf” value in assay [1] (Postemergence, 16 g ai/ha) is 85; in assay [1] (Postemergence, 31 g ai/ha), 85; in assay [1] (Postemergence, 62 g ai/ha), 90. In addition, the “Velvetleaf plant response rating” value in assay [1] (setting [4]) turned out to be 95. Also, the “Plant response rating (scale of 0 to 100), Nutsedge, Yellow” value in assay [2] (Postemergence, 16 g ai/ha) is recorded as 60; in assay [2] (Postemergence, 31 g ai/ha), 65; in assay [2] (Postemergence, 62 g ai/ha), 75. Also, the “Nutsedge, Yellow plant response rating” value in assay [2] (setting [4]) is listed as 75.
For the compound `CCOC(=O)c1nc(C2CC2)nc(NN)c1Br` [Compound 42], the pest or weed control at 31 g/ha in assay [1] (setting [7]) and in assay [2] (setting [11]) was 0% throughout. The pest or weed control at 62 g/ha in assay [1] (setting [8]) and in assay [2] (setting [12]) was 0% each time. Further, the pest or weed control at 125 g/ha in assay [1] (setting [9]) and in assay [2] (setting [13]) was 0% each time. Further, the pest or weed control at 250 g/ha in assay [1] (setting [10]) worked out at 20%; in assay [2] (setting [14]), 0%.
As to `Nc1nc(C2CC2)nc(C(=O)O)c1Br` [Compound 8], the pest or weed control at 62 g/ha was 60% in assay [1] (setting [8]), 65% in assay [1] (setting [16]), 0% in assay [2] (setting [12]) and 0% in assay [2] (setting [20]). In addition, the pest or weed control at 125 g/ha was found to be 70% in assay [1] (setting [9]), 75% in assay [1] (setting [17]), 0% in assay [2] (setting [13]) and 0% in assay [2] (setting [21]). Further, the pest or weed control at 250 g/ha in assay [1] (setting [10]) stood at 85%; in assay [1] (setting [18]), 100%; in assay [2] (setting [14]), 0%; in assay [2] (setting [22]) it was 100%. The pest or weed control at 500 g/ha in assay [1] (setting [15]) was 95%; in assay [1] (pre-emergence, Preemergence, 500 g ai/ha, scale 0 to 100, read-out: Plant response rating, Velvetleaf) it was 100%; in assay [2] (setting [19]), 0%; in assay [2] (pre-emergence, Preemergence, 500 g ai/ha, scale 0 to 100, read-out: Plant response rating, Nutsedge, Yellow) it was 100%.
Take `COC(=O)c1nc(-c2ccc(Cl)cc2)nc(N)c1Br` [Compound 83]: the “Plant response rating (scale of 0 to 100), Velvetleaf” value in assay [1] (Postemergence, 16 g ai/ha) is recorded as 70; in assay [1] (Postemergence, 31 g ai/ha) it was 85; in assay [1] (Postemergence, 62 g ai/ha), 85. For the same compound, the “Velvetleaf plant response rating” value in assay [1] (setting [4]) worked out at 100. Moreover, the “Plant response rating (scale of 0 to 100), Nutsedge, Yellow” value is on record as 60 in assay [2] (Postemergence, 16 g ai/ha); 60 in assay [2] (Postemergence, 31 g ai/ha); 60 in assay [2] (Postemergence, 62 g ai/ha). For the same compound, the “Nutsedge, Yellow plant response rating” value in assay [2] (setting [4]) is reported as 75.
With `COC(=O)c1nc(C2CC2)nc(N)c1Cl` [Compound 9, methyl 6-amino-5-chloro-2-cyclopropyl-4-pyrimidinecarboxylate], the pest or weed control at 31 g/ha in assay [1] (setting [7]) stood at 0%; in assay [1] (pre-emergence, Preemergence, 31 g ai/ha, scale 0 to 100, 0 no effect, 100 complete control, read-out: Plant response rating, Velvetleaf) it was 70%; in assay [2] (setting [11]) it was 0%; in assay [2] (pre-emergence, Preemergence, 31 g ai/ha, scale 0 to 100, 0 no effect, 100 complete control, read-out: Plant response rating, Nutsedge, Yellow), 20%. The pest or weed control at 62 g/ha in assay [1] (setting [8]) was 75%; in assay [1] (setting [16]), 95%; in assay [2] (setting [12]), 0%; in assay [2] (setting [20]), 100%. Moreover, the pest or weed control at 125 g/ha in assay [1] (setting [9]) turned out to be 80%; in assay [1] (setting [17]) it was 100%; in assay [2] (setting [13]), 0%; in assay [2] (setting [21]), 100%. The pest or weed control at 250 g/ha turned out to be 95% in assay [1] (setting [10]), 100% in assay [1] (setting [18]), 0% in assay [2] (setting [14]) and 100% in assay [2] (setting [22]).
On to `COCc1nc(C2CC2)nc(N)c1Br` [Compound 11], for which the “Plant response rating (scale of 0 to 100), Velvetleaf” value stood at 20 in assay [1] (Postemergence, 16 g ai/ha) and 50 in assay [1] (Postemergence, 31 g ai/ha). The “Velvetleaf plant response rating” value in assay [1] (setting [3]) was 60; in assay [1] (setting [4]), 75. Moreover, the “Plant response rating, Velvetleaf” value in assay [1] (setting [23]) is recorded as 0; in assay [1] (setting [24]) it was 0; in assay [1] (setting [25]), 0; in assay [1] (Preemergence, 125 g ai/ha, scale 0 to 100), 0. The “Plant response rating (scale of 0 to 100), Nutsedge, Yellow” value in assay [2] (Postemergence, 16 g ai/ha) is reported as 0; in assay [2] (Postemergence, 31 g ai/ha) it was 0. In addition, the “Nutsedge, Yellow plant response rating” value in assay [2] (setting [3]) and in assay [2] (setting [4]) was 0 each time. Also, the “Plant response rating, Nutsedge, Yellow” value in assay [2] (setting [23]), in assay [2] (setting [24]) and in assay [2] (setting [25]) was 0 each time.
Take `COC(=O)c1nc(C2CC2)nc(N)c1I` [Compound 7]: the pest or weed control at 62 g/ha in assay [1] (setting [8]) and in assay [2] (setting [12]) was 0% in each case. Also, the pest or weed control at 125 g/ha in assay [1] (setting [9]) turned out to be 10%; in assay [2] (setting [13]) it was 0%. Also, the pest or weed control at 250 g/ha was 35% in assay [1] (setting [10]) and 0% in assay [2] (setting [14]). In addition, the results for the pest or weed control at 500 g/ha in assay [1] (setting [15]) and in assay [2] (setting [19]) were 40% and 0%, respectively.
